Experimental data from patent publication US9409866B2, “Pyridine-2-amides useful as CB2 agonists” (Hoffmann-La Roche Inc., priority 2012, dated 2016).

Experiments:
human CB2 receptors = human CB2 receptors (Homo sapiens (Human), UniProt P34972); assay: functional cAMP assay, CHO cells expressing human CB2; assay type: cell-based; conditions: read-out: Human CB2 EC50
Procedure, shortened: (§1)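 Compound exposure lasted 30 min at 30 °C in IBMX (1 mM)-containing Krebs Ringer bicarbonate buffer, applied to human CB1- or CB2-expressing CHO cells. Lysates were read by time-resolved FRET cAMP detection, converted via cAMP standard curve (10 μM–0.13 nM), and EC50 values calculated.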

human CB1 receptors = human CB1 receptors (Homo sapiens (Human), UniProt P21554); assay: functional cAMP assay, CHO cells expressing human CB1; assay type: cell-based; conditions: functional cAMP assay, CHO cells expressing human CB1; read-out: Human CB1 EC50
Procedure, shortened: as §1

Sequence of human CB1 receptors (P21554 whole entry): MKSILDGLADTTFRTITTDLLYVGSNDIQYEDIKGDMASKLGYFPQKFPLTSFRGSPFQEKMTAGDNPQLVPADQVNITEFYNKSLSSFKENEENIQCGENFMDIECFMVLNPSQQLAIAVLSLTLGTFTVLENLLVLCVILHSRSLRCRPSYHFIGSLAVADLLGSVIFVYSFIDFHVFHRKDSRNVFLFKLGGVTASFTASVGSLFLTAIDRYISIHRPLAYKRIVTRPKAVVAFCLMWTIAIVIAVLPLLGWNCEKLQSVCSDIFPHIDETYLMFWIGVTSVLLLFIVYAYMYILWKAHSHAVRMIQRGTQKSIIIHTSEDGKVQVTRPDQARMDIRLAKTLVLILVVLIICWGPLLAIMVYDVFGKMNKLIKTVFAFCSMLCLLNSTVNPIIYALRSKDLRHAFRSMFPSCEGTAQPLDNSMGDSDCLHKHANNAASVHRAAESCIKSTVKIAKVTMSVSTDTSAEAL
Sequence of human CB2 receptors (P34972 whole entry): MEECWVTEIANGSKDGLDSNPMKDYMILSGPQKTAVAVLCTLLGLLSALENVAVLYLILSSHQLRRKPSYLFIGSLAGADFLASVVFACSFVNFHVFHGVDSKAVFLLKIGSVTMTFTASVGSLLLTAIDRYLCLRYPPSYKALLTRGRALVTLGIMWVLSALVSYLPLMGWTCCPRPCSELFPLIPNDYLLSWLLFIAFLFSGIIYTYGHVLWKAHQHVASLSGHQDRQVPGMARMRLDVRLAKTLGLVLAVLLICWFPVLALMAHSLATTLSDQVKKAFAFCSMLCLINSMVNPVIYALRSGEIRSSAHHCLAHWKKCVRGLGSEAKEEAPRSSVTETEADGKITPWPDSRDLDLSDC

Structure (SMILES)	EC50 (human CB2 receptors) [nM]	EC50 (human CB1 receptors) [µM]
CNC(=O)C(NC(=O)c1cc(OCC(F)(F)F)c(C2CC2)cn1)C(C)(C)F (centres unmarked) [Example 237, 5-cyclopropyl-N-[3-fluoro-3-methyl-1-(methylamino)-1-oxobutan-2-yl]-4-(2,2,2-trifluoroethoxy)pyridine-2-carboxamide]	17	> 10
CNC(=O)C(NC(=O)c1cc(O[C@@H](C)C(F)(F)F)c(C2CC2)cn1)C(C)(C)O (stereo partly drawn) [Example 238, 5-cyclopropyl-N-[3-hydroxy-3-methyl-1-(methylamino)-1-oxobutan-2-yl]-4-[(2S)-1,1,1-trifluoropropan-2-yl]oxypyridine-2-carboxamide]	27.4	> 10
C[C@H](Oc1cc(C(=O)NC(C(N)=O)C(C)(C)C)ncc1C1CC1)C(F)(F)F (stereo partly drawn) [Example 239, N-(1-amino-3,3-dimethyl-1-oxobutan-2-yl)-5-cyclopropyl-4-[(2S)-1,1,1-trifluoropropan-2-yl]oxypyridine-2-carboxamide]	1.5	> 10
C[C@H](Oc1cc(C(=O)NC(C(N)=O)C(C)(C)C)ncc1C1CC1)C(F)(F)F (stereo partly drawn) [Example 240, N-(1-amino-3,3-dimethyl-1-oxobutan-2-yl)-5-cyclopropyl-4-[(2S)-1,1,1-trifluoropropan-2-yl]oxypyridine-2-carboxamide]	55.2	> 10
Cc1nnc(C(NC(=O)c2cc(OCC(F)(F)F)c(C3CC3)cn2)C2(C)COC2)o1 (centres unmarked) [Example 245, 5-cyclopropyl-N-[(5-methyl-1,3,4-oxadiazol-2-yl)-(3-methyloxetan-3-yl)methyl]-4-(2,2,2-trifluoroethoxy)pyridine-2-carboxamide]	997	> 10
Cc1nnc(C(NC(=O)c2cc(O[C@@H](C)C(F)(F)F)c(C3CC3)cn2)C2(C)COC2)o1 (stereo partly drawn) [Example 246, 5-cyclopropyl-N-[(5-methyl-1,3,4-oxadiazol-2-yl)-(3-methyloxetan-3-yl)methyl]-4-[(2S)-1,1,1-trifluoropropan-2-yl]oxypyridine-2-carboxamide]	186	> 10
CNC(=O)CC(C)(NC(=O)c1cc(O[C@@H](C)C(F)(F)F)c(C2CC2)cn1)C1CC1 (stereo partly drawn) [Example 247, 5-cyclopropyl-N-[2-cyclopropyl-4-(methylamino)-4-oxobutan-2-yl]-4-[(2S)-1,1,1-trifluoropropan-2-yl]oxypyridine-2-carboxamide]	19.3	> 10
C[C@H](Oc1cc(C(=O)NC(C)(CC(N)=O)C2CC2)ncc1C1CC1)C(F)(F)F (stereo partly drawn) [Example 248, N-(4-amino-2-cyclopropyl-4-oxobutan-2-yl)-5-cyclopropyl-4-[(2S)-1,1,1-trifluoropropan-2-yl]oxypyridine-2-carboxamide]	0.9	> 10
CNC(=O)CC(C)(NC(=O)c1cc(O[C@@H](C)C(F)(F)F)c(C2CC2)cn1)C1CC1 (stereo partly drawn) [Example 249, 5-cyclopropyl-N-[2-cyclopropyl-4-(methylamino)-4-oxobutan-2-yl]-4-[(2S)-1,1,1-trifluoropropan-2-yl]oxypyridine-2-carboxamide]	1	> 10
CNC(=O)CC(C)(NC(=O)c1cc(O[C@@H](C)C(F)(F)F)c(C2CC2)cn1)C1CC1 (stereo partly drawn) [Example 250, 5-cyclopropyl-N-[2-cyclopropyl-4-(methylamino)-4-oxobutan-2-yl]-4-[(2S)-1,1,1-trifluoropropan-2-yl]oxypyridine-2-carboxamide]	33.2	> 10
C[C@H](Oc1cc(C(=O)NC(C(N)=O)C2(C)COC2)ncc1C1CC1)C(F)(F)F (stereo partly drawn) [Example 251, N-[2-amino-1-(3-methyloxetan-3-yl)-2-oxoethyl]-5-cyclopropyl-4-[(2S)-1,1,1-trifluoropropan-2-yl]oxypyridine-2-carboxamide]	8.9	> 10
CNC(=O)C(NC(=O)c1cc(O[C@@H](C)C(F)(F)F)c(C2CC2)cn1)C(C)(C)O (stereo partly drawn) [Example 252, 5-cyclopropyl-N-[3-hydroxy-3-methyl-1-(methylamino)-1-oxobutan-2-yl]-4-[(2S)-1,1,1-trifluoropropan-2-yl]oxypyridine-2-carboxamide]	344	> 10
CNC(=O)C(NC(=O)c1cc(O[C@@H](C)C(F)(F)F)c(C2CC2)cn1)C(C)(C)O (stereo partly drawn) [Example 253, 5-cyclopropyl-N-[3-hydroxy-3-methyl-1-(methylamino)-1-oxobutan-2-yl]-4-[(2S)-1,1,1-trifluoropropan-2-yl]oxypyridine-2-carboxamide]	1.9	> 10
Cc1nc(C(NC(=O)c2cc(O[C@@H](C)C(F)(F)F)c(C3CC3)cn2)C2(C)COC2)no1 (stereo partly drawn) [Example 254, 5-cyclopropyl-N-[(5-methyl-1,2,4-oxadiazol-3-yl)-(3-methyloxetan-3-yl)methyl]-4-[(2S)-1,1,1-trifluoropropan-2-yl]oxypyridine-2-carboxamide]	6.5	> 10
Cc1nc(C(NC(=O)c2cc(O[C@@H](C)C(F)(F)F)c(C3CC3)cn2)C2(C)COC2)no1 (stereo partly drawn) [Example 255, 5-cyclopropyl-N-[(5-methyl-1,2,4-oxadiazol-3-yl)-(3-methyloxetan-3-yl)methyl]-4-[(2S)-1,1,1-trifluoropropan-2-yl]oxypyridine-2-carboxamide]	6.7	> 10
CC(C)(C)C(NC(=O)c1cc(OCC(F)(F)F)c(N2CC(F)(F)C2)cn1)C(N)=O (centres unmarked) [Example 256, N-(1-amino-3,3-dimethyl-1-oxobutan-2-yl)-5-(3,3-difluoroazetidin-1-yl)-4-(2,2,2-trifluoroethoxy)pyridine-2-carboxamide]	13.2	> 10
CC(C)(C)C(NC(=O)c1cc(OCC2CC2)c(N2CC(F)(F)C2)cn1)C(N)=O (centres unmarked) [Example 257, N-(1-amino-3,3-dimethyl-1-oxobutan-2-yl)-4-(cyclopropylmethoxy)-5-(3,3-difluoroazetidin-1-yl)pyridine-2-carboxamide]	3	> 10
C[C@H](Oc1cc(C(=O)NC(C)(CC(N)=O)C2CC2)ncc1C1CC1)C(F)(F)F (stereo partly drawn) [Example 258, N-(4-amino-2-cyclopropyl-4-oxobutan-2-yl)-5-cyclopropyl-4-[(2S)-1,1,1-trifluoropropan-2-yl]oxypyridine-2-carboxamide]	13	> 10
C[C@H](Oc1cc(C(=O)NC(C)(CC(N)=O)C2CC2)ncc1C1CC1)C(F)(F)F (stereo partly drawn) [Example 259, N-(4-amino-2-cyclopropyl-4-oxobutan-2-yl)-5-cyclopropyl-4-[(2S)-1,1,1-trifluoropropan-2-yl]oxypyridine-2-carboxamide]	0.5	> 10
NC(=O)CC1(NC(=O)c2cc(OCC(F)(F)F)c(N3CC(F)(F)C3)cn2)CS(=O)(=O)C1 [Example 264, N-[3-(2-amino-2-oxoethyl)-1,1-dioxothietan-3-yl]-5-(3,3-difluoroazetidin-1-yl)-4-(2,2,2-trifluoroethoxy)pyridine-2-carboxamide]	178	> 10
C[C@H](Oc1cc(C(=O)NC2(CC(N)=O)CS(=O)(=O)C2)ncc1C1(F)COC1)C(F)(F)F [Example 265, N-[3-(2-amino-2-oxoethyl)-1,1-dioxothietan-3-yl]-5-(3-fluorooxetan-3-yl)-4-[(2S)-1,1,1-trifluoropropan-2-yl]oxypyridine-2-carboxamide]	102	> 10
C[C@H](Oc1cc(C(=O)NC2(CC(N)=O)CS(=O)(=O)C2)ncc1C1CC1)C(F)(F)F [Example 266, N-[3-(2-amino-2-oxoethyl)-1,1-dioxothietan-3-yl]-5-cyclopropyl-4-[(2S)-1,1,1-trifluoropropan-2-yl]oxypyridine-2-carboxamide]	1.6	> 10
NC(=O)CC1(NC(=O)c2cc(OCC3CC3)c(N3CC(F)(F)C3)cn2)CS(=O)(=O)C1 [Example 267, N-[3-(2-amino-2-oxoethyl)-1,1-dioxothietan-3-yl]-4-(cyclopropylmethoxy)-5-(3,3-difluoroazetidin-1-yl)pyridine-2-carboxamide]	10.5	> 10
NC(=O)CC1(NC(=O)c2cc(OCC(F)F)c(C3CC3)cn2)CS(=O)(=O)C1 [Example 274, N-[3-(2-amino-2-oxoethyl)-1,1-dioxothietan-3-yl]-5-cyclopropyl-4-(2,2-difluoroethoxy)pyridine-2-carboxamide]	10.1	> 10
NC(=O)CC1(NC(=O)c2cc(OCCF)c(C3CC3)cn2)CS(=O)(=O)C1 [Example 281, N-[3-(2-amino-2-oxoethyl)-1,1-dioxothietan-3-yl]-5-cyclopropyl-4-(2-fluoroethoxy)pyridine-2-carboxamide]	23.1	> 10
CNC(=O)CC1(NC(=O)c2cc(OCC(F)(F)F)c(C3CC3)cn2)CS(=O)(=O)C1 [Example 282, 5-cyclopropyl-N-[3-[2-(methylamino)-2-oxoethyl]-1,1-dioxothietan-3-yl]-4-(2,2,2-trifluoroethoxy)pyridine-2-carboxamide]	659	> 10
CNC(=O)CC1(NC(=O)c2cc(OCC(F)(F)F)c(C3(F)CCC3)cn2)CS(=O)(=O)C1 [Example 285, 5-(1-fluorocyclobutyl)-N-[3-[2-(methylamino)-2-oxoethyl]-1,1-dioxothietan-3-yl]-4-(2,2,2-trifluoroethoxy)pyridine-2-carboxamide]	1440	> 10
NC(=O)CC1(NC(=O)c2cc(OCC(F)(F)F)c(C3(F)CCC3)cn2)CS(=O)(=O)C1 [Example 286, N-[3-(2-amino-2-oxoethyl)-1,1-dioxothietan-3-yl]-5-(1-fluorocyclobutyl)-4-(2,2,2-trifluoroethoxy)pyridine-2-carboxamide]	45.9	> 10
